This is an account of results in patent US20250041284A1, “TREATMENT OF NEUROLOGICAL DISORDERS” (Praxis Precision Medicines, Inc., priority 2022, published 2025).

The data set deals with psychomotor seizures induced by 6-Hz electrical stimulation in wild-type CD-1 mice. Kind of data set: 6-Hz psychomotor seizure model. It is filed as in vivo, mouse. Also noted: EC50 value, protection from psychomotor seizures: unit not given here. An excerpt: This study evaluated the efficacy of Compound 1 in attenuating psychomotor seizures induced by 6-Hz electrical stimulation at two different stimulation intensities (32 and 44 mA) in wild-type CD-1 mice. Psychomotor seizures are defined as the expression of at least one of the following behaviors: stun/immobility, forelimb clonus, straub tail or lateral head movement within 30 seconds of the stimulus. Protection is defined as a complete absence of the above behaviors within 30 seconds of the stimulus. Doses of Compound 1 used were 1 mg/kg, 3 mg/kg and 6 mg/kg administered orally. Valproate (600 mg/kg, administered intraperitoneally) was used as a positive control.
Male CD-1 mice (Charles River Laboratories; St. Constant, Quebec, CAN) were used for the study. Body weights at the time the experiment was carried out were 30-40 grams. The mice were group-housed in polycarbonate cages according to standard operating procedures. Animals were maintained on a 12-hour light/12 hour dark cycle, with all experimental activities occurring during the light phase. Food and water were available ad libitum. Mice acclimated to the test facility for at least 72 hours prior to testing.
Treatment was conducted using Compound 1 and 35% 2-hydroxypropyl-β-cyclodextrin (35% HPBCD, used as a negative control). Compound 1 stock solution was prepared fresh each experiment day in 35% HPBCD. […] Valproate was prepared fresh each experiment day in a vehicle of saline and dosed at 10 mL/kg.
Mice were administered vehicle (35% HPBCD), a single dose of Compound 1 (1 mg/kg, 3 mg/kg or 6 mg/kg) or valproate (600 mg/kg). Vehicle and Compound 1 were administered via oral gavage 30 minutes prior to […]. Valproate was administered as an intraperitoneal injection 60 minutes prior to the electrical stimulus.
Immediately prior to conducting the 6-Hz seizure test, a brief neurological assessment was performed. Each animal was visually assessed and received a score from 0 to 3 according to the following scoring system::neurological score of 0 corresponds to a normal status; neurological score of 1 corresponds to a modest decrease in spontaneous activity; neurological score of 2 corresponds to a marked decrease in spontaneous activity; and neurological score of 3 corresponds to loss of righting reflex.
Corneal electrodes moistened with saline (ECT unit 57800; Ugo Basile) were used to deliver the electrical stimulus (6-Hz, 0.2 millisecond pulse width, 3 seconds duration). The current delivered was either 32 mA or 44 mA. Immediately after the electrical stimulus, each mouse was monitored continuously for 30 seconds by an observer blinded to the treatment group. […] Mice were scored for the presence or absence of each seizure behavior, with a maximum total score of 4. […] At the end of the 6-Hz seizure test, plasma and brain samples were collected.
Mice were anesthetized with isoflurane, whole blood was collected via cardiac puncture and brains were harvested. Whole blood was collected in potassium EDTA tubes and centrifuged at ˜3300 g for 5 minutes at 4° C. to isolate plasma. Plasma and brain samples were stored at −80° C. and analyzed to determine levels of Compound 1.
All statistical analyses were conducted using GraphPad Prism 9.3. Seizure scores were compared using Kruskal-Wallis test, followed by Dunn's post hoc and p<0.05 was considered statistically significant.

“Also recorded” adds a separate entry of the source.

Take `CCOC(F)(F)c1nnc2ccc(-c3cnc(OCC(F)(F)F)c(F)c3)cn12` [Compound 1]: the seizure score entry (6 mg/kg orally, 32 and 44 mA) is given as “significantly reduced the seizure score; also recorded: reduced seizure scores”. In addition, for the setting “1, 3, 6 mg/kg orally”, the “neurological scores before 6-Hz test” value was “all neurological scores were zero; also recorded: Neurological scores for all doses of Compound 1 tested were normal”. For the same compound, the “Plasma EC50” value is listed as 385 (383-386) ng/mL (32 mA, 95% confidence interval in parentheses) and more than 441 ng/mL (44 mA). Also, under “Mus musculus, dose-response curve, read-out: ED50 value, protection from psychomotor seizures”, the ED50 (as a rule, the dose that gives a 50% effect, or the effect in half of the subjects) stood at 1.9 mg/kg. Besides, the “EC50 value, protection from psychomotor seizures” value (plasma concentration-response curve) is reported as 147.
